Results from patent US8663632B1, “Compositions and methods for selectively targeting cancer cells using a thiaminase compound” (University of Kentucky Research Foundation, priority 2008, dated 2014).

Test system: GRP78 and UPR pathway proteins in breast cancer cell lines
Experiment: Immunoblot analysis of energy and UPR pathway proteins
Type: cell-based, human
Conditions: tunicamycin 5 μg/ml, thapsigargin 1 μM; all four breast cancer cell lines
Method: Cells were treated with thiaminase or anti-cancer agent for the indicated times and washed with ice-cold PBS. Cells were lysed with a triple-detergent lysis buffer (50 mM Tris pH8.0, 150 mM NaCl, 1% NP-40, 0.5% DOC, 0.1% SDS, 0.02% sodium azide and protease inhibitors). Equal amounts of protein were loaded into each well and separated by 10% SDS-PAGE gel, followed by transfer onto nitrocellulose membranes. The membranes were blocked, incubated with the indicated primary antibodies at 4° C. overnight, and the appropriate horseradish peroxidase-conjugated secondary antibody was added for 1 hour at room temperature. Immunoblots were developed by use of the enhanced chemiluminescence (ECL) detection system (Pierce, Rockford, Ill.) according to the manufacturer's protocol and autoradiography. All of the primary antibodies were purchased from Cell Signaling Technologies (Danvers, MA). The secondary antibodies were purchased from Sigma (St. Louis, Mo.). An anti-β-actin antibody was used as a control for protein loading.

| Molecule | GRP78 induction |
| --- | --- |
| tunicamycin | marked induction |
| C/C=C(/C)C(=O)O[C@H]1C(C)=C2[C@H]([C@@H]1OC(=O)CCCCCCC)[C@@](C)(OC(C)=O)C[C@H](OC(=O)CCC)[C@@]1(O)[C@H]2OC(=O)[C@@]1(C)O [thapsigargin] | marked induction |
